Key:
TWIST1 = assay: Western blotting of TWIST1 during cisplatin exposure; assay type: cell-based, human; conditions: Ov8GFP-TWIST1 cells; 5 μM cisplatin over 24 hr
Protocol: (§1) Western blotting. Cells were pelleted and washed once with phosphate buffered saline (PBS), then lysed in RIPA buffer. Protein concentration was determined using a BCA assay (Thermo Fisher). Equal masses of protein were run on 4% stacking, 10% resolving polyacrylamide gels, and then transferred to PVDF membrane (GE Healthcare Bio-Sciences, Pittsburgh, PA) using the Trans-Blot SD Semi-Dry Transfer Cell (Bio-Rad). Membranes were blocked in dry milk dissolved in PBS with shaking for 1 hr at room temperature or overnight at 4° C. 3% BSA was used for blocking prior to select pAkt blots to reduce background signal. Primary and secondary antibodies were diluted as indicated below in 5% dry milk in PBS with 0.1-0.2% Tween-20. Incubation was performed at room temperature for one hr or overnight at 4° C. for primary, and at room temperature for one hr for secondary. Each antibody incubation was followed by five 5 min washes in PBS with 0.1% Tween-20. FemtoGlow HRP substrate (Michigan Diagnostics, Royal Oak, MI) and the Pxi4 chemiluminescent imager (Syngene, Frederick, MD) were used to acquire digital images. ECL 2 (Thermo Fisher) and Blue Devil Film (Genesee Scientific) were used to acquire film images. […] For select digital and film westerns, bands were quantified using GeneTools software from Syngene or Image Studio Lite from LiCor (Lincoln, NB), respectively, and normalized to β-Actin.

Ovcar8-IP tumors = assay: Ovcar8-IP intraperitoneal tumor model in NSG mice, MSN-siRNA with or without cisplatin; assay type: in vivo
Protocol: Animal Studies. The animal studies conducted in these experiments were done in accordance with a protocol approved by the Institutional Animal Care and Use Committee at the City of Hope Beckman Research Institute. A total of 48 female NOD.Cg-Prkdc^scidIl2rg^tm1Wj1/SzJ (NSG) mice (The Jackson Laboratory, Bar Harbor, ME) were used. Ten week old (on average) mice were administered an intraperitoneal injection (IP) of 2.5×10^6 Ovcar8-IP cells in 200 μl of RPMI media. For all studies, mice were placed into four groups: MSN-siQ, MSN-siQ+cisplatin, MSN-si419H, and MSN-si419H+cisplatin (n=4 or n=8). Previous reports show no cellular uptake without MSNs^14, thus a siRNA-only group was not added to this study.
Bioluminescent imaging of mice (using Xenogen IVIS 100 biophotonic imaging system, STTARR, Toronto, Ontario, Canada) commenced seven days after injection of tumor cells in order to ensure engraftment, and continued once a week for four weeks. Mice were given a 100 μl IP injection of 20 mg/ml D-Luciferin (PerkinElmer, Waltham, MA). Ten minutes after the D-luciferin injection, mice were anesthetized with isoflurane (2%-5%) and placed in the biophotonic imager, and images were taken within two minutes. An alfalfa-free version of the regular rodent diet (alfalfa-free CA-1) was administered to the siQ mice to prevent autofluorescence from the regular diet.
IP injections of MSN+siRNA (siQ fluorescently labeled with ALEXAFLUOR® 647 or si419H) were conducted one week after the inoculation of Ovcar8-IP cells and done once or twice per week for a total of four weeks. Mice received 105 μl of 500 ng/μl MSN complexed with 15 μl of 10 μM siRNA per week, divided into one full or two half doses (n=4 and n=8, respectively). This is equivalent to […] MSN/week. Weekly 3 mg/kg IP cisplatin injections were given starting two weeks after initial inoculation of cells.
At completion of the experiment, all animals were euthanized via CO2 asphyxiation. […]
Statistics. All in vivo data was analyzed using one-way ANOVA with correction for multiple comparisons, comparing all groups to MSN-siQ treatment group. […]

A2780R cells = assay: Sulphorhodamine B cell survival assay with cisplatin, A2780R; assay type: cell-based; conditions: without YTZ3-15-si494 treatment
Protocol: Sulphorhodamine B Cell Survival Assays. A2780R or Ovcar8-IP cells were plated in 6 well plates and allowed to adhere overnight. The following day, cells were transfected with siQ, si419, or si494 as described above—A2780R cells using YTZ3-15 and Ovcar8-IP cells using MSNs. After 48-72 hours, cells were transferred to 96 well plates at 5,000 cells per well and allowed to adhere overnight. The following day cells were treated with cisplatin at a series of concentrations (cells not treated with cisplatin served as controls). After 72 hours, cells were fixed in 10% trichloroacetic acid for 1 hour at 4° C., washed with water, and dried. Cells were stained in 0.4% sulphorhodamine B (SRB) in 1% acetic acid for 15 minutes at room temperature and then washed 3-4 times with 1% acetic acid until no further color was present in the wash. Any stray SRB on the walls of the wells was removed, and stained cells were dried for 10 minutes. SRB was solubilized in 10 mM Tris base and color intensity was quantified by absorbance at 570 nm. Each condition was normalized to its own untreated control.

Phospho Akt (Ser473) = assay: Western blotting of Akt phosphorylated at Ser 473 during cisplatin exposure; assay type: cell-based, human; conditions: 24 hr
Protocol: as §1

Akt = assay: Western blotting of total Akt during cisplatin exposure; assay type: cell-based, human
Protocol: as §1

## N.N.[Cl][Pt][Cl] [cisplatin]
TWIST1
  increase in TWIST1 expression: up to 2.3 fold
Ovcar8-IP tumors; FIG. 21B
  reduction of metastasis incidence (number of disseminated masses): approximately 50%
Ovcar8-IP tumors; n=4 per group
  proportion of mice developing ascites: 2/4
A2780R cells
  IC50: ~200 µM
Phospho Akt (Ser473); Ov8GFP-TWIST1 cells, siQ, 5 μM cisplatin, normalized to total Akt
  increase in proportion of Akt phosphorylated at Ser 473: 128%
Phospho Akt (Ser473); Ov8GFP-sh492 cells, cisplatin
  reduction in phosphorylated Akt: 63%
Akt; Ov8GFP-TWIST1 cells, siQ, 5 μM cisplatin over 24 hr
  increase in Akt levels: 150%
Akt; Ov8GFP-sh492 cells, cisplatin over 24 hr
  total Akt levels: relatively constant

Source: patent US11926826B2, “Twist signaling inhibitor compositions and methods of using the same” (City of Hope, priority 2016, dated 2024)
